# Test results: ChEMBL document CHEMBL3885861, “Open TG-GATES”
# Organism: Rattus norvegicus
# Assay: Open TG-GATES - Regimen: Single
# Assay type: toxicity, organism-based, Sprague-Dawley
# Design: regimen Single, gender Male, age 6 weeks
# Details: in vivo, po, 0 mg/kg, route gavage, dose level Control; for APTT / Bas / Eos / Fbg / Hb / Ht / Lym / MCH / MCHC / MCV / Mono / Neu / PT / Plat / RBC / Ret / WBC: tissue Blood; for KIDNEY_L / KIDNEY_R / KIDNEY_TOTAL: tissue Kidney; for LIVER: tissue Liver; for A/G / ALP / ALT / AST / BUN / CRE / Ca / Cl / DBIL / GLC / IP / K / LDH / Na / PL / RALB / TBIL / TC / TG / TP / gamma-GTP: tissue Plasma
smiles,measurement,setting,value
COc1ccc(O)c(C(C)(C)C)c1.COc1ccc(O)cc1C(C)(C)C [BUTYLATED HYDROXYANISOLE],TERMINAL_BW,3 h,208.5 g
same,APTT,3 h,13.3 s
same,Bas,3 h,0.2%
same,Eos,3 h,0.7%
same,Fbg,3 h,265.2 mg/dL
same,Hb,3 h,13.1 g/dL
same,Ht,3 h,38.4%
same,Lym,3 h,74%
same,MCH,3 h,21.2 pg
same,MCHC,3 h,34%
same,MCV,3 h,62.4 fL
same,Mono,3 h,3%
same,Neu,3 h,21.1%
same,PT,3 h,11.5 s
same,Plat,3 h,132.5 x10_4/uL
same,RBC,3 h,616.8 x10_4/ul
same,Ret,3 h,7.8%
same,WBC,3 h,93.2 x10_2/uL
same,KIDNEY_L,3 h,0.9 g
same,KIDNEY_R,3 h,0.8 g
same,KIDNEY_TOTAL,3 h,1.7 g
same,LIVER,3 h,9 g
same,A/G,3 h,0.8
same,ALP,3 h,1750 IU/L
same,ALT,3 h,41.4 IU/L
same,AST,3 h,76.4 IU/L
same,BUN,3 h,10.6 mg/dL
same,CRE,3 h,0.2 mg/dL
same,Ca,3 h,11.2 mg/dL
same,Cl,3 h,106.4 meq/L
same,DBIL,3 h,0.03 mg/dL
same,GLC,3 h,171.8 mg/dL
same,IP,3 h,8.9 mg/dL
same,K,3 h,4.4 meq/L
same,LDH,3 h,72.2 IU/L
same,Na,3 h,141 meq/L
same,PL,3 h,153.8 mg/dL
same,RALB,3 h,2.6 g/dL
same,TBIL,3 h,0.076 mg/dL
same,TC,3 h,80.8 mg/dL
same,TG,3 h,84.6 mg/dL
same,TP,3 h,5.6 g/dL
same,gamma-GTP,3 h,1.2 IU/L
same,TERMINAL_BW,6 h,202.6 g
same,APTT,6 h,16.8 s
same,Bas,6 h,0.2%
same,Eos,6 h,0.7%
same,Fbg,6 h,263 mg/dL
same,Hb,6 h,13.3 g/dL
same,Ht,6 h,39%
same,Lym,6 h,75.4%
same,MCH,6 h,21.3 pg
same,MCHC,6 h,34.2%
same,MCV,6 h,62.2 fL
same,Mono,6 h,2%
same,Neu,6 h,20.9%
same,PT,6 h,12.6 s
same,Plat,6 h,145.4 x10_4/uL
same,RBC,6 h,626.6 x10_4/ul
same,Ret,6 h,7.6%
same,WBC,6 h,97.7 x10_2/uL
same,KIDNEY_L,6 h,0.9 g
same,KIDNEY_R,6 h,0.9 g
same,KIDNEY_TOTAL,6 h,1.8 g
same,LIVER,6 h,8.1 g
same,A/G,6 h,0.8
same,ALP,6 h,1507 IU/L
same,ALT,6 h,33.8 IU/L
same,AST,6 h,67.8 IU/L
same,BUN,6 h,7.2 mg/dL
same,CRE,6 h,0.2 mg/dL
same,Ca,6 h,10.9 mg/dL
same,Cl,6 h,109 meq/L
same,DBIL,6 h,0.026 mg/dL
same,GLC,6 h,179 mg/dL
same,IP,6 h,10 mg/dL
same,K,6 h,4.1 meq/L
same,LDH,6 h,54.8 IU/L
same,Na,6 h,142.6 meq/L
same,PL,6 h,127.8 mg/dL
same,RALB,6 h,2.6 g/dL
same,TBIL,6 h,0.074 mg/dL
same,TC,6 h,73.8 mg/dL
same,TG,6 h,58.2 mg/dL
same,TP,6 h,5.7 g/dL
same,gamma-GTP,6 h,1.2 IU/L
same,TERMINAL_BW,9 h,203.6 g
same,APTT,9 h,15.7 s
same,Bas,9 h,0.2%
same,Eos,9 h,0.8%
same,Fbg,9 h,263 mg/dL
same,Hb,9 h,12.9 g/dL
same,Ht,9 h,37.6%
same,Lym,9 h,74.4%
same,MCH,9 h,21.1 pg
same,MCHC,9 h,34.2%
same,MCV,9 h,61.5 fL
same,Mono,9 h,2.8%
same,Neu,9 h,21%
same,PT,9 h,12.8 s
same,Plat,9 h,142.3 x10_4/uL
same,RBC,9 h,612 x10_4/ul
same,Ret,9 h,8.4%
same,WBC,9 h,68.2 x10_2/uL
same,KIDNEY_L,9 h,0.9 g
same,KIDNEY_R,9 h,0.8 g
same,KIDNEY_TOTAL,9 h,1.7 g
same,LIVER,9 h,7.6 g
same,A/G,9 h,0.9
same,ALP,9 h,1620.2 IU/L
same,ALT,9 h,30.8 IU/L
same,AST,9 h,66.6 IU/L
same,BUN,9 h,8.8 mg/dL
same,CRE,9 h,0.2 mg/dL
same,Ca,9 h,10.9 mg/dL
same,Cl,9 h,106.2 meq/L
same,DBIL,9 h,0.022 mg/dL
same,GLC,9 h,177.4 mg/dL
same,IP,9 h,10.2 mg/dL
same,K,9 h,4.1 meq/L
same,LDH,9 h,61.6 IU/L
same,Na,9 h,141.8 meq/L
same,PL,9 h,128.2 mg/dL
same,RALB,9 h,2.6 g/dL
same,TBIL,9 h,0.088 mg/dL
same,TC,9 h,76.8 mg/dL
same,TG,9 h,39.4 mg/dL
same,TP,9 h,5.6 g/dL
same,gamma-GTP,9 h,1.2 IU/L
same,TERMINAL_BW,24 h,217.3 g
same,APTT,24 h,15.1 s
same,Bas,24 h,0.2%
same,Eos,24 h,0.7%
same,Fbg,24 h,275.6 mg/dL
same,Hb,24 h,13 g/dL
same,Ht,24 h,38%
same,Lym,24 h,77%
same,MCH,24 h,20.9 pg
same,MCHC,24 h,34.2%
same,MCV,24 h,61.2 fL
same,Mono,24 h,2.3%
same,Neu,24 h,19.1%
same,PT,24 h,12.2 s
same,Plat,24 h,136.6 x10_4/uL
same,RBC,24 h,620.2 x10_4/ul
same,Ret,24 h,7%
same,WBC,24 h,82.5 x10_2/uL
same,KIDNEY_L,24 h,0.9 g
same,KIDNEY_R,24 h,0.9 g
same,KIDNEY_TOTAL,24 h,1.8 g
same,LIVER,24 h,9.7 g
same,A/G,24 h,0.8
same,ALP,24 h,1843.2 IU/L
same,ALT,24 h,40 IU/L
same,AST,24 h,70.8 IU/L
same,BUN,24 h,14.6 mg/dL
same,CRE,24 h,0.2 mg/dL
same,Ca,24 h,11.2 mg/dL
same,Cl,24 h,106.4 meq/L
same,DBIL,24 h,0.018 mg/dL
same,GLC,24 h,173 mg/dL
same,IP,24 h,7.7 mg/dL
same,K,24 h,4.3 meq/L
same,LDH,24 h,63.2 IU/L
same,Na,24 h,143.6 meq/L
same,PL,24 h,136.6 mg/dL
same,RALB,24 h,2.6 g/dL
same,TBIL,24 h,0.066 mg/dL
same,TC,24 h,77.6 mg/dL
same,TG,24 h,75.8 mg/dL
same,TP,24 h,5.7 g/dL
same,gamma-GTP,24 h,1 IU/L
